“And” between values parts separate entries of the source, which are not always exact repeats. Equal entries are not always repeated. Inconclusive results and toxic doses are left out.
Tested on: L1210 leukemia ip in BDF1 mice, survival T/C
Assay: NCI In Vivo Anticancer Drug Screen. Data for tumor model L1210 Leukemia (intraperitoneal) in B6D2F1 (BDF1) mice
Conditions: endpoint: mean survival time, higher = longer survival
How it was run: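 Survival endpoint. Drug-treated group vs vehicle group, expressed as T divided by C. Tumor passaged by transplantation.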

[1] = dose: 100.0 mg/kg/injection, schedule: Q04DX002 (ip), vehicle: Klucel (hydroxypropylcellulose) (HPC)
[2] = dose: 200.0 mg/kg/injection, schedule: Q04DX002 (ip), vehicle: Klucel (hydroxypropylcellulose) (HPC)
[3] = dose: 25.0 mg/kg/injection, schedule: Q04DX002 (ip), vehicle: saline with Tween-80
[4] = dose: 100.0 mg/kg/injection, schedule: Q01DX009 (ip), vehicle: saline
[5] = dose: 100.0 mg/kg/injection, schedule: Q04DX003 (ip), vehicle: saline
[6] = dose: 200.0 mg/kg/injection, schedule: Q01DX009 (ip), vehicle: saline
[7] = dose: 200.0 mg/kg/injection, schedule: Q04DX003 (ip), vehicle: saline
[8] = dose: 400.0 mg/kg/injection, schedule: Q01DX009 (ip), vehicle: saline
[9] = dose: 400.0 mg/kg/injection, schedule: Q04DX003 (ip), vehicle: saline
[10] = dose: 100.0 mg/kg/injection, schedule: Q01DX009 (ip), vehicle: Klucel (hydroxypropylcellulose) (HPC)
[11] = dose: 200.0 mg/kg/injection, schedule: Q01DX009 (ip), vehicle: Klucel (hydroxypropylcellulose) (HPC)
[12] = dose: 400.0 mg/kg/injection, schedule: Q01DX009 (ip), vehicle: Klucel (hydroxypropylcellulose) (HPC)
[13] = dose: 50.0 mg/kg/injection, schedule: Q04DX002 (ip), vehicle: saline with Tween-80
[14] = dose: 100.0 mg/kg/injection, schedule: Q04DX002 (ip), vehicle: saline with Tween-80
[15] = dose: 200.0 mg/kg/injection, schedule: Q04DX002 (ip), vehicle: saline with Tween-80

CCOC(=O)C1(NC(=O)N(CCCl)N=O)CCCC1
T/C (dose: 16.0 mg/kg/injection, schedule: Q01DX001 (ip), vehicle: other): 105 % of control
T/C (dose: 31.0 mg/kg/injection, schedule: Q01DX001 (ip), vehicle: other): 110 % of control
T/C (dose: 108.0 mg/kg/injection, schedule: Q01DX001 (ip), vehicle: other): 178 % of control
T/C (dose: 110.0 mg/kg/injection, schedule: Q01DX001 (ip), vehicle: other): 185 % of control
T/C (dose: 125.0 mg/kg/injection, schedule: Q01DX001 (ip), vehicle: other): 217 % of control
T/C (dose: 165.0 mg/kg/injection, schedule: Q01DX001 (ip), vehicle: other): 236 % of control
T/C (dose: 168.0 mg/kg/injection, schedule: Q01DX001 (ip), vehicle: other): 262 % of control
T/C (dose: 247.0 mg/kg/injection, schedule: Q01DX001 (ip), vehicle: other): 272 % of control
T/C (dose: 250.0 mg/kg/injection, schedule: Q01DX001 (ip), vehicle: other): 278 % of control and 314 % of control
T/C (dose: 370.0 mg/kg/injection, schedule: Q01DX001 (ip), vehicle: other): 250 % of control
T/C (dose: 375.0 mg/kg/injection, schedule: Q01DX001 (ip), vehicle: other): 115 % of control
T/C (dose: 555.0 mg/kg/injection, schedule: Q01DX001 (ip), vehicle: other): 94 % of control

COc1ccc(/C=N/NC(=O)c2ccc(N=NN(C)C)cc2)c(OC)c1
T/C (dose: 75.0 mg/kg/injection, schedule: Q04DX003 (ip), vehicle: Klucel (hydroxypropylcellulose) (HPC)): 104 % of control
T/C (dose: 150.0 mg/kg/injection, schedule: Q04DX003 (ip), vehicle: Klucel (hydroxypropylcellulose) (HPC)): 97 % of control
T/C (dose: 300.0 mg/kg/injection, schedule: Q04DX003 (ip), vehicle: Klucel (hydroxypropylcellulose) (HPC)): 99 % of control

O=[N+]([O-])c1cccc(Cl)c1F
T/C [1]: 101 % of control
T/C [2]: 96 % of control

COc1ccc(C(=O)c2c[nH]c3c(OC)ccc(O)c23)cc1
T/C (dose: 6.25 mg/kg/injection, schedule: Q04DX002 (ip), vehicle: saline with Tween-80): 95 % of control
T/C (dose: 12.5 mg/kg/injection, schedule: Q04DX002 (ip), vehicle: saline with Tween-80): 95 % of control
T/C [3]: 91 % of control

C[N+](C)(C)c1ccc(/C=N\O)cc1
T/C (dose: 6.25 mg/kg/injection, schedule: Q04DX003 (ip), vehicle: saline): 95 % of control
T/C (dose: 12.5 mg/kg/injection, schedule: Q04DX003 (ip), vehicle: saline): 102 % of control

CC(C)N1c2c(nc(N)[nH]c2=O)NCC1CNc1ccc(C(=O)NC(CCC(=O)O)C(=O)O)cc1 (stereo unspecified)
T/C [4]: 102 % of control
T/C [5]: 104 % of control
T/C [6]: 102 % of control
T/C [7]: 98 % of control
T/C [8]: 102 % of control
T/C [9]: 98 % of control

O=C(O)CCc1c2ccc(=O)cc-2oc2cc(O)ccc12
T/C (dose: 100.0 mg/kg/injection, schedule: Q04DX003 (ip), vehicle: Klucel (hydroxypropylcellulose) (HPC)): 91 % of control
T/C (dose: 200.0 mg/kg/injection, schedule: Q04DX003 (ip), vehicle: Klucel (hydroxypropylcellulose) (HPC)): 91 % of control
T/C (dose: 400.0 mg/kg/injection, schedule: Q04DX003 (ip), vehicle: Klucel (hydroxypropylcellulose) (HPC)): 92 % of control

CC(C)N(C(=O)Nc1cccc(C(F)(F)F)c1)c1ccccc1
T/C [10]: 106 % of control
T/C [11]: 104 % of control
T/C [12]: 87 % of control

CSc1nnc(N)s1
T/C (dose: 25.0 mg/kg/injection, schedule: Q01DX009 (ip), vehicle: Klucel (hydroxypropylcellulose) (HPC)): 91 % of control
T/C (dose: 50.0 mg/kg/injection, schedule: Q01DX009 (ip), vehicle: Klucel (hydroxypropylcellulose) (HPC)): 94 % of control
T/C [10]: 94 % of control
T/C [1]: 94 % of control and 91 % of control
T/C [11]: 99 % of control
T/C [2]: 97 % of control and 98 % of control
T/C [12]: 98 % of control
T/C (dose: 400.0 mg/kg/injection, schedule: Q04DX002 (ip), vehicle: Klucel (hydroxypropylcellulose) (HPC)): 103 % of control
T/C (dose: 800.0 mg/kg/injection, schedule: Q04DX002 (ip), vehicle: Klucel (hydroxypropylcellulose) (HPC)): 87 % of control

CCCCOC1=CC2C(=CCC3C2(C)C(=O)CC2(C)C(C(C)(O)C(=O)/C=C/C(C)(C)O)C(O)CC32C)C(C)(C)C1=O (stereo unspecified)
T/C [13]: 97 % of control
T/C [14]: 97 % of control
T/C [15]: 101 % of control

COc1ccccc1CN1CCCN(Cc2ccccc2OC)C1c1cc(Br)ccc1O
T/C (dose: 50.0 mg/kg/injection, schedule: Q01DX001 (ip), vehicle: saline): 95 % of control
T/C (dose: 100.0 mg/kg/injection, schedule: Q01DX001 (ip), vehicle: saline): 103 % of control
T/C (dose: 200.0 mg/kg/injection, schedule: Q01DX001 (ip), vehicle: saline): 103 % of control
T/C (dose: 400.0 mg/kg/injection, schedule: Q01DX001 (ip), vehicle: saline): 103 % of control

CCCCCCCC(CCCCCC)(OO)C(=O)OC (stereo unspecified)
T/C [3]: 100 % of control
T/C [13]: 95 % of control
T/C [14]: 91 % of control

CCCCC(CCCC)(C(=O)OCCOCCCl)c1cccc2ccccc12
T/C [14]: 101 % of control
T/C [15]: 95 % of control
T/C (dose: 400.0 mg/kg/injection, schedule: Q04DX002 (ip), vehicle: saline with Tween-80): 99 % of control

O=C(O)/C=C(/Cl)c1ccccc1
T/C (dose: 100.0 mg/kg/injection, schedule: Q04DX003 (ip), vehicle: saline with Tween-80): 102 % of control
T/C (dose: 200.0 mg/kg/injection, schedule: Q04DX003 (ip), vehicle: saline with Tween-80): 100 % of control
T/C (dose: 400.0 mg/kg/injection, schedule: Q04DX003 (ip), vehicle: saline with Tween-80): 108 % of control

COc1ccc(N2C(=O)CCC2=S)cc1
T/C (dose: 50.0 mg/kg/injection, schedule: Q01DX001 (ip), vehicle: carboxymethylcellulose (CMC)): 104 % of control
T/C (dose: 100.0 mg/kg/injection, schedule: Q01DX001 (ip), vehicle: carboxymethylcellulose (CMC)): 96 % of control
T/C (dose: 200.0 mg/kg/injection, schedule: Q01DX001 (ip), vehicle: carboxymethylcellulose (CMC)): 102 % of control
T/C (dose: 400.0 mg/kg/injection, schedule: Q01DX001 (ip), vehicle: carboxymethylcellulose (CMC)): 102 % of control

C[N+]1(CCNC2=CC(=O)C(NCC[N+]3(C)CCOCC3)=CC2=O)CCOCC1
T/C (dose: 5.0 mg/kg/injection, schedule: Q01DX001 (ip), vehicle: saline): 103 % of control
T/C (dose: 10.0 mg/kg/injection, schedule: Q01DX001 (ip), vehicle: saline): 101 % of control
T/C (dose: 20.0 mg/kg/injection, schedule: Q01DX001 (ip), vehicle: saline): 101 % of control
T/C (dose: 40.0 mg/kg/injection, schedule: Q01DX001 (ip), vehicle: saline): 101 % of control
T/C (dose: 80.0 mg/kg/injection, schedule: Q01DX001 (ip), vehicle: saline): 97 % of control

CCOC(=O)C(C(C)=O)C1c2ccccc2Nc2ccccc21 (stereo unspecified)
T/C (dose: 50.0 mg/kg/injection, schedule: Q01DX009 (ip), vehicle: saline with Tween-80): 98 % of control
T/C (dose: 100.0 mg/kg/injection, schedule: Q01DX009 (ip), vehicle: saline with Tween-80): 109 % of control
T/C (dose: 200.0 mg/kg/injection, schedule: Q01DX009 (ip), vehicle: saline with Tween-80): 106 % of control

CCOC(=O)C(CCC(=O)OC)C1=NC(C)(C)CC(C)O1 (stereo unspecified)
T/C (dose: 100.0 mg/kg/injection, schedule: Q01DX001 (ip), vehicle: Klucel (hydroxypropylcellulose) (HPC)): 106 % of control
T/C (dose: 200.0 mg/kg/injection, schedule: Q01DX001 (ip), vehicle: Klucel (hydroxypropylcellulose) (HPC)): 110 % of control
T/C (dose: 400.0 mg/kg/injection, schedule: Q01DX001 (ip), vehicle: Klucel (hydroxypropylcellulose) (HPC)): 97 % of control

COc1cc([N+](=O)[O-])c(C)cc1NC(=O)c1ccc(OC)c(OC)c1
T/C (dose: 50.0 mg/kg/injection, schedule: Q01DX009 (ip), vehicle: saline): 97 % of control
T/C [4]: 96 % of control
T/C [5]: 89 % of control
T/C [6]: 96 % of control
T/C [7]: 93 % of control
T/C [8]: 97 % of control
T/C [9]: 91 % of control

— PubChem BioAssay AID248 (DTP/NCI, 2004)
